# Laboratory results from patent US20140050810A1, “ANTI-OBESITY COMPOSITION COMPRISING LYCIUM CHINENSIS LEAF EXTRACT AND BETAINE AS ACTIVE INGREDIENT” (BIONUTRIGEN CO., LTD., priority 2012, published 2014).
# Values joined by “and” are separate entries in the source; they are usually repeats but may differ in a detail not shown here. Equal entries are not always repeated. Marks after values point to notes of the source that are not given here.
# Assays:
# [1] = system: high-fat diet-induced obesity models; test: Subcutaneous fat and total fat in high-fat diet-induced obesity mice; format: in vivo, C57BL/6 mice; conditions: JBB21 1, LWE 2, JBB21+LWE 1+2 g/kg
# Description: (§1) Betaine (JBB21), a Lycium chinensis hot water extract powder (LWE), or a mixture thereof (JBB21+LWE) was orally administered five times a week to high-fat diet-induced obesity models and their effects on obesity, hyperlipidemia and fatty liver were analyzed. JBB21 and LWE were purchased as white and brown powders, respectively, from Bionutrigen, and stored at room temperature before use in the experiment.
# (§2) C57BL/6, specific pathogen-free (SPF) mice (male, six weeks old, Division of Biomedical Research, Korea Research Institute of Bioscience and Biotechnology) were used as the test animals.
# (§3) For comparison, a negative control and an obese group (high fat diet, HFD) were allowed to freely eat a radiation-sterilized control diet (CD, 10% kcal, Research Diets) and a high fat diet (HFD, 60% Kcal, Research Diets, supplied by Central Lab. Animal), respectively, during the administration of JBB21, LWE, or JBB21+LWE.
# (§4) JBB21, LWE, and JBB21+LWE were dissolved in 3.D.W at concentrations of 100 mg/mL, 200 mg/mL, and 100+200 mg/mL, respectively, and each of the solutions was orally administered at a dose of 10 mL/kg five times a week for 56 days.
# Meanwhile, subcutaneous fat was also measured.
# In addition, total fat was measured in the mice administered with JBB21, LWE, or JBB21+LWE.
# [2] = system: high-fat diet-induced obesity models; test: Effect on liver function: liver weight, hepatic triglyceride, GOT, GPT, pathology in high-fat diet-induced obesity mice; format: in vivo, C57BL/6 mice
# Description: as §1, §2, §3, §4
# Mice administered with JBB21, LWE, and JBB21+LWE were euthanized with CO2 gas and underwent laparotomy to excise the livers therefrom. The livers were weighed with a chemical balance, and compared with those from the control and the obese groups. A part of the liver was frozen in liquid nitrogen (LN2) to measure triglyceride and cholesterol contents while the other part was fixed in formalin for pathological analysis.
# The frozen liver tissues were homogenized by a homogenizer, followed by centrifugation. The supernatant was analyzed for hepatic triglyceride and cholesterol levels using a triglyceride quantification kit (Cat. #: K622-100), and a cholesterol/cholesteryl ester quantification kit (Cat. #: K603-100), respectively, both commercially available from Biovision.
# For pathological analysis, the liver tissue fixed in formalin was embedded in a paraffin block, and sectioned, and stained with H&E (Hematoxylin & Eosin) before observation under an optical microscope (FIG. 1).
# [3] = system: high-fat diet-induced obesity models; test: Weight change in high-fat diet-induced obesity mice; format: in vivo, C57BL/6 mice; conditions: JBB21 1, LWE 2, JBB21+LWE 1+2 g/kg
# Description: as §1, §2, §3, §4
# The negative control (CD), the obese group (HFD), and the test groups (JBB21, LWE, and JBB21+LWE) were monitored three times a week for weight change and diet intake before and during administration.
# Each of the solutions of JBB21 and LWE was administered at a single dose of 10 mL/kg five times a week for 56 days. […] The LWE (2 g/kg) group decreased in weight by 6.5% by the last day, but no significant changes in weight had been observed during the test period.
# [4] = system: high-fat diet-induced obesity models; test: Blood leptin, adiponectin and triglyceride levels in high-fat diet-induced obesity mice; format: in vivo, C57BL/6 mice; conditions: JBB21 1, LWE 2, JBB21+LWE 1+2 g/kg
# Description: as §1, §2, §3, §4
# Blood samples taken on 56 days after the administration of a mixture of JBB21 and LWE were placed in heparin-coated tubes and stored on ice, followed by centrifugation at 6,000 rpm for 5 min. The plasma thus obtained was analyzed for levels of blood leptin, a hormone marker for obesity, adiponectin, an anti-obesity hormone, and triglyceride levels, using an automated biochemistry analyzer (AU400, Olympus, Japan). Leptin and adiponectin vary in secretion and function depending on the level of fat accumulated in the body. The preventive and therapeutic effects of the mixture according to the present invention were determined in view of plasma levels of leptin and adiponectin.
# In this regard, the blood levels of the hormones were measured using Mouse Leptin ELISA kit (Cat. #: MOB00) and Mouse Adiponectin ELISA kit (Cat. #: MRP300), respectively, both commercially available from R&D Systems.
# [5] = Anti-obesity effect of betaine and Lycium chinensis leaf extract powder in human body; format: in vivo; conditions: Betaine 3 g twice/day 43 days
# Description: In order to evaluate the anti-obesity effect of Lycium chinensis leaf extract powder and betaine, subjects' weight, body mass index (BMI), body fat, body fat percentage, and muscle mass were measured prior to the administration of betaine and Lycium chinensis leaf extract powder. Betaine and Lycium chinensis leaf extract powder were separately dissolved in water and administered at a single dose of 3 g and 10 g, respectively, twice a day just before breakfast and supper.
# In consideration of their component properties, the Lycium chinensis leaf extract powder, which comprised various components, was administered for 22 days while 43 days was also allocated for the administration of betaine, a single compound. Preventive and therapeutic effects of the two ingredients on obesity were evaluated in view of changes in weight, BMI, body fat, body fat percentage, and muscle mass.
# [6] = HFD mice, oral five times a week for 56 days
# [7] = compared to the obese group (Vehicle Control)
# [8] = HFD mice, JBB21 1, LWE 2, JBB21+LWE 1+2 g/kg
# [9] = vs. Vehicle Control, JBB21 1, LWE 2, JBB21+LWE 1+2 g/kg
# [10] = L. chinensis leaf extract powder 10 g twice/day 22 days
# [11] = L. chinensis leaf extract powder 10 g twice/day 22 days, baseline
smiles,measurement,setting,value
"C[N+](C)(C)CC(=O)O [JBB21, betaine]",Subcutaneous Fat,[1]; [6],2975.4 ± 530.4 mg
same,Total Fat,[1]; [6],7030.2 ± 947.9 mg
same,Subcutaneous Fat IR(%),[1]; [7],14.2%
same,Total Fat IR(%),[1]; [7],4.3% and 4.2%
same,Liver Wt,"[2]; HFD mice, 56 days, JBB21 1, LWE 2, JBB21+LWE 1+2 g/kg",1511.2 mg
same,liver appearance / hepatic fat deposits (in words),"[2]; HFD mice, H&E-stained liver tissue (FIG. 1)",clean and healthy livers almost free of fat deposits
same,GOT,[2]; [8],57.1 IU/L
same,GPT,[2]; [8],39.8 IU/L
same,GOT IR(%),"[2]; compared to the obese group (Vehicle Control), JBB21 1, LWE 2, JBB21+LWE 1+2 g/kg",59.8%
same,Hepatic triglyceride,"[2]; liver homogenate supernatant, HFD mice, JBB21 1, LWE 2, JBB21+LWE 1+2 g/kg",3.1389 nmol/mL
same,Liver Wt IR(%),"[2]; relative to the obese group (Vehicle Control), JBB21 1, LWE 2, JBB21+LWE 1+2 g/kg",25.4%
same,GPT IR(%),[2]; [9],67.2%
same,Hepatic triglyceride IR(%),[2]; [9],10.8%
same,"Weight, day 0 after treatment","[3]; day 0, HFD (60% Kcal) mice, oral five times a week, n = 10, in g (unit assumed)",31.1 ± 1.5
same,"Weight, day 11 after treatment","[3]; day 11, HFD (60% Kcal) mice, oral five times a week, n = 10, in g (unit assumed)",31.9 ± 1.6
same,"Weight IR(%), day 11","[3]; day 11, vs. Vehicle Control (obese group)",5.6%
same,"Weight, day 21 after treatment","[3]; day 21, HFD (60% Kcal) mice, oral five times a week, n = 10, in g (unit assumed)",34.5 ± 1.8
same,"Weight IR(%), day 21","[3]; day 21, vs. Vehicle Control (obese group)",5.8%
same,"Weight, day 30 after treatment","[3]; day 30, HFD (60% Kcal) mice, oral five times a week, n = 10, in g (unit assumed)",36.1 ± 2.3
same,"Weight IR(%), day 30","[3]; day 30, vs. Vehicle Control (obese group)",8.8%
same,"Weight, day 39 after treatment","[3]; day 39, HFD (60% Kcal) mice, oral five times a week, n = 10, in g (unit assumed)",38.4 ± 2.7
same,"Weight IR(%), day 39","[3]; day 39, vs. Vehicle Control (obese group)",9.6* %
same,"Weight, day 51 after treatment","[3]; day 51, HFD (60% Kcal) mice, oral five times a week, n = 10, in g (unit assumed)",40.9 ± 3.1
same,"Weight IR(%), day 51","[3]; day 51, vs. Vehicle Control (obese group)",9.6* %
same,"Weight, day 56 after treatment","[3]; day 56, HFD (60% Kcal) mice, oral five times a week, n = 10, in g (unit assumed)",42.0 ± 3.4
same,"Weight IR(%) / weight loss, day 56 (last day)","[3]; day 56, vs. Vehicle Control (obese group)",9.4%
same,Leptin IR(%),[4]; [7],9.1% and 9.2%
same,Leptin (blood),"[4]; plasma, day 56, HFD mice",134.3 ng/mL
same,Triglyceride (blood),"[4]; plasma, day 56, HFD mice",74.7 mg/dL
same,Triglyceride (blood) IR(%),[4]; vs. Vehicle Control,22.3%
same,"BMI, After Administration",[5],29.3
same,"BMI, Reduction",[5],2.7%
same,"Body Fat, After Administration",[5]; [10],25.9
same,"Body Fat, Change",[5]; [10],-1.7 kg
same,"Body Fat, Reduction",[5]; [10],6.2%
same,"Body Fatness (body fat percentage), After Administration",[5]; [10],30.7
same,"Body Fatness (body fat percentage), Change",[5]; [10],-1%
same,"Body Fatness (body fat percentage), Reduction",[5]; [10],3.2%
same,"Muscle Mass, After Administration",[5]; [10],55.5
same,"Muscle Mass, Change",[5]; [10],-0.7 kg
same,"Muscle Mass, Reduction",[5]; [10],1.3%
same,"Weight, After Administration",[5]; [10],84.0 kg
same,"Weight, Change",[5]; [10],-3.0 kg
same,"Weight, Reduction",[5]; [10],3.5%
same,"Body Fat, Before Administration",[5]; [11],27.6
same,"Body Fatness (body fat percentage), Before Administration",[5]; [11],31.7
same,"Muscle Mass, Before Administration",[5]; [11],56.2
same,"Weight, Before Administration",[5]; [11],87.0 kg
same,"BMI, Before Administration",[5]; baseline,30.1
